Source: the Kinase Knowledgebase extract (Sharma et al. 2016)

Molecular target: CDK2 (UniProt P24941)
Assay: Enzyme Assay

| Structure (SMILES) | IC50 [µM] |
| --- | --- |
| O=C(Cc1ccc(-c2ccc(F)cc2)cc1)Nc1n[nH]c2c1CCC2 | < 10 |
| CC(=O)c1ccc(-c2ccc(CC(=O)Nc3n[nH]c4c3CCC4)cc2)cc1 | 6.5 |
| COc1ccc(OC)c(CC(=O)Nc2n[nH]c3c2CCC3)c1 | 5.2 |
| O=C(Cc1ccc(-c2ccccc2F)cc1)Nc1n[nH]c2c1CCC2 | 7 |
| O=C(Cc1ccc(-c2cccc(F)c2)cc1)Nc1n[nH]c2c1CCC2 | 7 |
| COc1ccccc1-c1ccc(CC(=O)Nc2n[nH]c3c2CCC3)cc1 | < 10 |
| CC(C)(C)c1ccc(CC(=O)Nc2n[nH]c3c2CCC3)cc1 | 1 |
| COc1ccc(CC(=O)Nc2n[nH]c3c2CCC3)cc1 | 0.7 |
| COc1cccc(-c2ccc(CC(=O)Nc3n[nH]c4c3CCC4)cc2)c1 | < 10 |
| CSc1ccc(CC(=O)Nc2n[nH]c3c2CCC3)cc1 | 1.5 |
| CC(=O)c1cccc(-c2ccc(CC(=O)Nc3n[nH]c4c3CCC4)cc2)c1 | 4.3 |
| O=C(Nc1n[nH]c2c1CCC2)C1CC1 | 4 |
| COc1ccc(-c2ccc(CC(=O)Nc3n[nH]c4c3CCC4)cc2)cc1 | < 10 |

Results, then the compound that gave them:

| IC50 [µM] | Structure (SMILES) |
| --- | --- |
| 1.1 | O=C(Cc1ccc(Br)cc1)Nc1n[nH]c2c1CCC2 |
| 0.8 | O=C(Cc1ccc(I)cc1)Nc1n[nH]c2c1CCC2 |
| 5 | O=C(Nc1n[nH]c2c1CCC2)c1cccc(F)c1 |
| 4 | O=C(Nc1n[nH]c2c1CCC2)c1cccs1 |
| 3 | O=C(Cc1ccc(F)cc1)Nc1n[nH]c2c1CCC2 |
| 4 | O=C(Cc1cccs1)Nc1n[nH]c2c1CCC2 |
| 4 | O=C(Nc1n[nH]c2c1CCC2)c1ccc2c(c1)OCO2 |
| 7.6 | COc1cccc(CC(=O)Nc2n[nH]c3c2CCC3)c1 |
| 3 | O=C(CCc1ccccc1)Nc1n[nH]c2c1CCC2 |
| 1.5 | O=C(Cc1cccc(Br)c1)Nc1n[nH]c2c1CCC2 |
| 6 | COc1ccc(C(=O)Nc2n[nH]c3c2CCC3)cc1 |
| 8 | O=C(Cc1cccc(-c2ccccc2)c1)Nc1n[nH]c2c1CCC2 |
| 7 | O=C(Nc1n[nH]c2c1CCC2)c1ccccc1 |
| 1 | O=C(Cc1ccc(-c2ccccc2)cc1)Nc1n[nH]c2c1CCC2 |
| 1.5 | O=C(Cc1ccccc1)Nc1n[nH]c2c1CCC2 |
